Organism: Rattus norvegicus
Assay: Open TG-GATES - Regimen: Daily Repeat
Type: toxicity, organism-based, Sprague-Dawley
Set-up: regimen Daily Repeat, gender Male, age 6 weeks
Details: in vivo, po, route gavage; for APTT / Bas / Eos / Fbg / Hb / Ht / Lym / MCH / MCHC / MCV / Mono / Neu / PT / Plat / RBC / Ret / WBC: tissue Blood; for KIDNEY_L / KIDNEY_R / KIDNEY_TOTAL: tissue Kidney; for LIVER: tissue Liver; for A/G / ALP / ALT / AST / BUN / CRE / Ca / Cl / DBIL / GLC / IP / K / LDH / Na / PL / RALB / TBIL / TC / TG / TP / gamma-GTP: tissue Plasma
[1] = 120 mg/kg, 72 h, dose level Middle, time 3 day
[2] = 120 mg/kg, […], dose level Middle, time 7 day
[3] = 120 mg/kg, […], dose level Middle, time 14 day
[4] = 120 mg/kg, […], dose level Middle, time 28 day
[5] = 400 mg/kg, 72 h, dose level High, time 3 day
[6] = 400 mg/kg, […], dose level High, time 7 day
[7] = 400 mg/kg, […], dose level High, time 14 day
[8] = 400 mg/kg, […], dose level High, time 28 day

Cc1cccc(C)c1OCC(C)N (centres undefined) [MEXILETINE]
TERMINAL_BW [1]: 236.3 g
APTT [1]: 21.8 s
Bas [1]: 0%
Eos [1]: 0.8%
Fbg [1]: 325.2 mg/dL
Hb [1]: 12.9 g/dL
Ht [1]: 40.1%
Lym [1]: 74%
MCH [1]: 19.7 pg
MCHC [1]: 32.3%
MCV [1]: 61.1 fL
Mono [1]: 2.6%
Neu [1]: 21.6%
PT [1]: 15.3 s
Plat [1]: 115.5 x10_4/uL
RBC [1]: 656.6 x10_4/ul
Ret [1]: 6.1%
WBC [1]: 96.8 x10_2/uL
KIDNEY_L [1]: 1 g
KIDNEY_R [1]: 1 g
KIDNEY_TOTAL [1]: 2 g
LIVER [1]: 11.5 g
A/G [1]: 1.3
ALP [1]: 1686.2 IU/L
ALT [1]: 48.6 IU/L
AST [1]: 73.4 IU/L
BUN [1]: 16.6 mg/dL
CRE [1]: 0.1 mg/dL
Ca [1]: 10.8 mg/dL
Cl [1]: 106.2 meq/L
DBIL [1]: 0 mg/dL
GLC [1]: 197 mg/dL
IP [1]: 8 mg/dL
K [1]: 4.3 meq/L
LDH [1]: 181.2 IU/L
Na [1]: 141.6 meq/L
PL [1]: 168 mg/dL
RALB [1]: 3.2 g/dL
TBIL [1]: 0.002 mg/dL
TC [1]: 91.2 mg/dL
TG [1]: 150.2 mg/dL
TP [1]: 5.7 g/dL
gamma-GTP [1]: 1.8 IU/L
TERMINAL_BW [2]: 275.9 g
TERMINAL_BW [3]: 328.1 g
TERMINAL_BW [4]: 389.9 g
APTT [2]: 22.2 s
Bas [2]: 0%
Eos [2]: 0.8%
Fbg [2]: 321.2 mg/dL
Hb [2]: 13.1 g/dL
Ht [2]: 40.4%
Lym [2]: 77.8%
MCH [2]: 20.5 pg
MCHC [2]: 32.4%
MCV [2]: 63.3 fL
Mono [2]: 2.4%
Neu [2]: 18.4%
PT [2]: 15.6 s
Plat [2]: 105.3 x10_4/uL
RBC [2]: 638 x10_4/ul
Ret [2]: 6.2%
WBC [2]: 107.1 x10_2/uL
APTT [3]: 21.8 s
Bas [3]: 0%
Eos [3]: 0.4%
Fbg [3]: 310.2 mg/dL
Hb [3]: 13.1 g/dL
Ht [3]: 40.6%
Lym [3]: 83.2%
MCH [3]: 20.1 pg
MCHC [3]: 32.2%
MCV [3]: 62.6 fL
Mono [3]: 2%
Neu [3]: 13.6%
PT [3]: 15.9 s
Plat [3]: 113.4 x10_4/uL
RBC [3]: 648.8 x10_4/ul
Ret [3]: 7.3%
WBC [3]: 96 x10_2/uL
APTT [4]: 23.8 s
Bas [4]: 0%
Eos [4]: 1.8%
Fbg [4]: 328.2 mg/dL
Hb [4]: 15.1 g/dL
Ht [4]: 44%
Lym [4]: 74%
MCH [4]: 19.4 pg
MCHC [4]: 34.4%
MCV [4]: 56.6 fL
Mono [4]: 2.4%
Neu [4]: 21.2%
PT [4]: 15.6 s
Plat [4]: 94.2 x10_4/uL
RBC [4]: 777 x10_4/ul
Ret [4]: 3.1%
WBC [4]: 93 x10_2/uL
KIDNEY_L [2]: 1.1 g
KIDNEY_R [2]: 1.1 g
KIDNEY_TOTAL [2]: 2.2 g
KIDNEY_L [3]: 1.3 g
KIDNEY_R [3]: 1.3 g
KIDNEY_TOTAL [3]: 2.6 g
KIDNEY_L [4]: 1.5 g
KIDNEY_R [4]: 1.5 g
KIDNEY_TOTAL [4]: 2.9 g
LIVER [2]: 13.2 g
LIVER [3]: 14.8 g
LIVER [4]: 16.8 g
A/G [2]: 1.2
ALP [2]: 1567.6 IU/L
ALT [2]: 45 IU/L
AST [2]: 69.8 IU/L
BUN [2]: 18.4 mg/dL
CRE [2]: 0.1 mg/dL
Ca [2]: 11 mg/dL
Cl [2]: 104.8 meq/L
DBIL [2]: 0 mg/dL
GLC [2]: 188.6 mg/dL
IP [2]: 7.8 mg/dL
K [2]: 4.2 meq/L
LDH [2]: 145.6 IU/L
Na [2]: 142 meq/L
PL [2]: 163.2 mg/dL
RALB [2]: 3 g/dL
TBIL [2]: 0.004 mg/dL
TC [2]: 81.2 mg/dL
TG [2]: 148 mg/dL
TP [2]: 5.6 g/dL
gamma-GTP [2]: 1.6 IU/L
A/G [3]: 1.1
ALP [3]: 1443.2 IU/L
ALT [3]: 43.2 IU/L
AST [3]: 74.6 IU/L
BUN [3]: 19.4 mg/dL
CRE [3]: 0.2 mg/dL
Ca [3]: 10.5 mg/dL
Cl [3]: 107.2 meq/L
DBIL [3]: 0 mg/dL
GLC [3]: 190.6 mg/dL
IP [3]: 6.5 mg/dL
K [3]: 4.4 meq/L
LDH [3]: 157.8 IU/L
Na [3]: 140.6 meq/L
PL [3]: 160 mg/dL
RALB [3]: 2.9 g/dL
TBIL [3]: 0.002 mg/dL
TC [3]: 80.8 mg/dL
TG [3]: 155.6 mg/dL
TP [3]: 5.7 g/dL
gamma-GTP [3]: 2.2 IU/L
A/G [4]: 1
ALP [4]: 977 IU/L
ALT [4]: 42.4 IU/L
AST [4]: 68.8 IU/L
BUN [4]: 16.2 mg/dL
CRE [4]: 0.2 mg/dL
Ca [4]: 10.4 mg/dL
Cl [4]: 105.6 meq/L
DBIL [4]: 0 mg/dL
GLC [4]: 201.6 mg/dL
IP [4]: 6 mg/dL
K [4]: 3.7 meq/L
LDH [4]: 158.2 IU/L
Na [4]: 142.8 meq/L
PL [4]: 157.8 mg/dL
RALB [4]: 3.1 g/dL
TBIL [4]: 0.012 mg/dL
TC [4]: 80.2 mg/dL
TG [4]: 145.2 mg/dL
TP [4]: 6.1 g/dL
gamma-GTP [4]: 2 IU/L
TERMINAL_BW [5]: 229.5 g
APTT [5]: 21.1 s
Bas [5]: 0%
Eos [5]: 1%
Fbg [5]: 337.4 mg/dL
Hb [5]: 13.2 g/dL
Ht [5]: 40.8%
Lym [5]: 76.6%
MCH [5]: 19.9 pg
MCHC [5]: 32.5%
MCV [5]: 61.3 fL
Mono [5]: 2.2%
Neu [5]: 19.6%
PT [5]: 15.8 s
Plat [5]: 111.4 x10_4/uL
RBC [5]: 666.8 x10_4/ul
Ret [5]: 5.4%
WBC [5]: 88.4 x10_2/uL
KIDNEY_L [5]: 1 g
KIDNEY_R [5]: 1.1 g
KIDNEY_TOTAL [5]: 2.1 g
LIVER [5]: 10.3 g
A/G [5]: 1.3
ALP [5]: 1772.8 IU/L
ALT [5]: 54 IU/L
AST [5]: 75.6 IU/L
BUN [5]: 13.8 mg/dL
CRE [5]: 0.1 mg/dL
Ca [5]: 10.5 mg/dL
Cl [5]: 106.2 meq/L
DBIL [5]: 0 mg/dL
GLC [5]: 191.4 mg/dL
IP [5]: 7.4 mg/dL
K [5]: 4 meq/L
LDH [5]: 170 IU/L
Na [5]: 142.2 meq/L
PL [5]: 155.6 mg/dL
RALB [5]: 3.2 g/dL
TBIL [5]: 0.008 mg/dL
TC [5]: 86 mg/dL
TG [5]: 87.4 mg/dL
TP [5]: 5.6 g/dL
gamma-GTP [5]: 1.4 IU/L
TERMINAL_BW [6]: 249.3 g
TERMINAL_BW [7]: 299.7 g
TERMINAL_BW [8]: 372.4 g
APTT [6]: 22.2 s
Bas [6]: 0%
Eos [6]: 0.4%
Fbg [6]: 343.8 mg/dL
Hb [6]: 13.8 g/dL
Ht [6]: 41.9%
Lym [6]: 79%
MCH [6]: 20.1 pg
MCHC [6]: 32.9%
MCV [6]: 61 fL
Mono [6]: 2%
Neu [6]: 17%
PT [6]: 16.4 s
Plat [6]: 111.8 x10_4/uL
RBC [6]: 687.2 x10_4/ul
Ret [6]: 4%
WBC [6]: 107.9 x10_2/uL
APTT [7]: 21.7 s
Bas [7]: 0%
Eos [7]: 1%
Fbg [7]: 292.2 mg/dL
Hb [7]: 12.9 g/dL
Ht [7]: 39.9%
Lym [7]: 75.8%
MCH [7]: 20.5 pg
MCHC [7]: 32.4%
MCV [7]: 63.2 fL
Mono [7]: 2.4%
Neu [7]: 20.6%
PT [7]: 16.5 s
Plat [7]: 108.6 x10_4/uL
RBC [7]: 632.4 x10_4/ul
Ret [7]: 7.4%
WBC [7]: 62.3 x10_2/uL
APTT [8]: 23.2 s
Bas [8]: 0%
Eos [8]: 1%
Fbg [8]: 334.4 mg/dL
Hb [8]: 15.5 g/dL
Ht [8]: 45.2%
Lym [8]: 76%
MCH [8]: 19.1 pg
MCHC [8]: 34.3%
MCV [8]: 55.6 fL
Mono [8]: 2.4%
Neu [8]: 19.4%
PT [8]: 16.1 s
Plat [8]: 101.2 x10_4/uL
RBC [8]: 813.6 x10_4/ul
Ret [8]: 2.4%
WBC [8]: 104.8 x10_2/uL
KIDNEY_L [6]: 1.1 g
KIDNEY_R [6]: 1.1 g
KIDNEY_TOTAL [6]: 2.3 g
KIDNEY_L [7]: 1.3 g
KIDNEY_R [7]: 1.3 g
KIDNEY_TOTAL [7]: 2.6 g
KIDNEY_L [8]: 1.5 g
KIDNEY_R [8]: 1.5 g
KIDNEY_TOTAL [8]: 3 g
LIVER [6]: 11.5 g
LIVER [7]: 13.9 g
LIVER [8]: 16.7 g
A/G [6]: 1.2
ALP [6]: 1505.6 IU/L
ALT [6]: 50.2 IU/L
AST [6]: 76 IU/L
BUN [6]: 18 mg/dL
CRE [6]: 0.2 mg/dL
Ca [6]: 10.9 mg/dL
Cl [6]: 104.6 meq/L
DBIL [6]: 0 mg/dL
GLC [6]: 180.6 mg/dL
IP [6]: 7.2 mg/dL
K [6]: 4.2 meq/L
LDH [6]: 130.4 IU/L
Na [6]: 143 meq/L
PL [6]: 168.4 mg/dL
RALB [6]: 3.1 g/dL
TBIL [6]: 0.004 mg/dL
TC [6]: 85.6 mg/dL
TG [6]: 138.2 mg/dL
TP [6]: 5.7 g/dL
gamma-GTP [6]: 1.2 IU/L
A/G [7]: 1.1
ALP [7]: 1631.8 IU/L
ALT [7]: 70.2 IU/L
AST [7]: 97.6 IU/L
BUN [7]: 19.4 mg/dL
CRE [7]: 0.2 mg/dL
Ca [7]: 10.4 mg/dL
Cl [7]: 105.8 meq/L
DBIL [7]: 0 mg/dL
GLC [7]: 185 mg/dL
IP [7]: 7.1 mg/dL
K [7]: 4.4 meq/L
LDH [7]: 185.4 IU/L
Na [7]: 141 meq/L
PL [7]: 182.6 mg/dL
RALB [7]: 3.1 g/dL
TBIL [7]: 0 mg/dL
TC [7]: 88 mg/dL
TG [7]: 186.8 mg/dL
TP [7]: 5.9 g/dL
gamma-GTP [7]: 2.2 IU/L
A/G [8]: 1.1
ALP [8]: 1359 IU/L
ALT [8]: 43.6 IU/L
AST [8]: 70 IU/L
BUN [8]: 18.2 mg/dL
CRE [8]: 0.2 mg/dL
Ca [8]: 10.5 mg/dL
Cl [8]: 104.2 meq/L
DBIL [8]: 0 mg/dL
GLC [8]: 183.8 mg/dL
IP [8]: 6.6 mg/dL
K [8]: 4.3 meq/L
LDH [8]: 144.6 IU/L
Na [8]: 142.2 meq/L
PL [8]: 180.4 mg/dL
RALB [8]: 3.1 g/dL
TBIL [8]: 0.01 mg/dL
TC [8]: 91.4 mg/dL
TG [8]: 162.6 mg/dL
TP [8]: 6.1 g/dL
gamma-GTP [8]: 1.8 IU/L
